Entries after “also recorded” stand apart in the source; their conditions may differ.
How the values were obtained:
[1] = test system: bovine cartilage explants; experiment: In vitro joint disease model (IL-1), explanted bovine cartilage: sGAG loss; format: cell-based; settings: for cartilage matrix loss (% sGAG loss): 13.3 nM supplied in every medium change, IL-1, relative to Disease control; for cartilage matrix loss (% sGAG loss), 4 days versus 12 days of treatment: protein in medium day 0-4 only versus 12 days, IL-1, FIG. 7
Text: (§1) Bovine cartilage explants (3 mm diameter, 1.2 mm thick) are harvested from the femoral patellar groove of 2-4 week old bovine calves. Knee joints are mounted by removing all tissue surrounding the femur, removing the femoral head with a bone saw or hack saw, and clamping in a tissue vice. Joints are aseptically opened, removing the patella, tibia and fibula. Using a 3 mm diameter disposable biopsy punch, approximately 80×3 mm diameter full thickness cartilage cores are punched from the femoral-patellar groove. A sterile knife is used to slice the cores at the cartilage-bone interface. Cores are then inserted into 3 mm diameter holes in a 1.2 mm thick sterile stainless steel plate and sliced flush with the plate using sterile razor blades to remove the excess core length, resulting in 3 mm diameter, 1.2 mm thick cartilage explants with the superficial zone cartilage intact.
(§2) Explants are cultured in 96-well plates in 300 μL of medium consisting of low glucose DMEM (1× Gibco 11885-084), Penicillin-Streptomycin (1×, Gibco 15140-122), ascorbic acid (20 μg/mL, Sigma A4403), proline (400 μM, Sigma P5607-256), non-essential amino acids (1×, Sigma M7145), and HEPES (100 mM, Gibco 15630-080). Explants from three animals (n=2-3 per animal) are used in each treatment condition for a total explant number of 8-9 per condition. Medium is changed every 2 days. On days 6 and 10, the medium is supplemented with 5 μCi/mL of ^35S-sodium sulfate (Perkin Elmer NEX041H001MC, 1 mCi).
(§3) Timepoints are taken at day 8 and 12: explant tissue is washed four times for 30 min each (2 hr total) in 1 mM unlabeled sodium sulfate in PBS. Each explant is weighed wet and frozen at −20° C. until digestion. Tissue digestion was performed with Proteinase K (Roche cat #3115879001) and each explant is digested in 1 mL 100 μg/mL Proteinase K in 50 mM Tris-HCL, 1 mM Calcium Chloride pH=8.0 buffer at 60° C. overnight. Measurement of sGAG content and DNA content is performed using standard assay methods such as those described in Hoemann, 2004, Methods in Molecular Medicine: Cartilage and Osteoarthritis. Totowa, N.J.: Humana Press Inc.; p. 127-52. ^35S-sulfate content of the digested cartilage explants was quantified by mixing 20 μL of digest with 250 μL of scintillation fluid (Perkin Elmer cat #1200-439) and counting with a WALLAC 1450 MICROBETA TRILUX scintillation counter.
(§4) Treatments were given at the following concentrations: wtIGF-1 13.3 nM=100 ng/mL (IGF-1 R&D systems 291-G1); GF-Fus1 (6x-Histidine tagged) 13.3 nM=135 ng/mL; GF-Fus2 (6x-Histidine tagged) 13.3 nM=140 ng/mL; and GF-Fus3 (6x-Histidine tagged)13.3 nM=181 ng/mL. All treatments included IL-1 and were given for either 4 days or the entire culture duration. The outcomes measured were ^35S-sulfate incorporation, DNA content, and sGAG content of plug at endpoint, and sGAG released to media for all media changes. Controls were either no treatment (Healthy) or IL-1 alone at 1 ng/mL (Disease).
(§5) FIG. 4 depicts a graph of cartilage matrix loss as measured by the cumulative percentage of total sGAG lost to the culture medium against time (days). Percentage loss is calculated by dividing the cumulative sGAG in the culture medium by the total sGAG present in the medium over the culture period plus the sGAG remaining in the explant at the end of culture. Cartilage matrix loss was reduced by each IGF fusion protein relative to the disease control at a level similar to wild-type IGF. New cartilage matrix synthesis (i.e. sulfated proteoglycan synthesis is measured by ^35S-Sulfate incorporation) during the final 48 hrs of cultures terminated at day 8 and day 12 is shown in FIGS. 5A and 5B, respectively. Cartilage matrix synthesis was increased compared to disease control by all fusion proteins (GF-Fus1, GF-Fus2, and GF-Fus3) and wild-type IGF when the fusion proteins were supplied in every medium change for the entire culture duration of 8 and 12 days (black bars). […]

[2] = test system: bovine cartilage explants; experiment: In vitro joint disease model (IL-1), explanted bovine cartilage: ^35S-sulfate incorporation; format: cell-based; settings: for cartilage matrix synthesis (^35S-sulfate incorporation): supplied in every medium change for 8 or 12 days, IL-1, final 48 hrs, versus Disease control
Text: as §1, §2, §3, §4, §5

Substance | cartilage matrix loss (% sGAG loss) [1] | cartilage matrix synthesis (^35S-sulfate incorporation) [2] | cartilage matrix loss (% sGAG loss), 4 days versus 12 days of treatment [1] | cartilage matrix synthesis (^35S-sulfate incorporation) after fusion protein removal ([2]; treatment day 0-4 only, measured at day 8 and day 12, IL-1)
GF-Fus6: IGF-1(LR3) fused to CNA344 CB domain | reduced | increase |  | 
GF-Fus5: IGF-1(LR3) fused to CNA35 CB domain | reduced | increase |  | 
GF-Fus3: C-terminal fusion IGF-1(LR3)-PRELP heparin binding domain | reduced | increase; also recorded: stimulated cartilage matrix biosynthesis | reduced sGAG loss by an equivalent amount | highest; also recorded: increased proteoglycan biosynthesis by an equivalent amount; also recorded: largest increase
wtIGF: Wild-type IGF-1 (R&D systems 291-G1), control [reference compound] | reduced | increased |  | 
GF-Fus1: IGF-1 variant polypeptide Long [R^3]-IGF-1, no fused binding domain; used 6x-Histidine-tagged as control [reference compound] | reduced | increase; also recorded: stimulated cartilage matrix biosynthesis | higher sGAG loss than 12 days of treatment | 
